Measured values reported in patent US12691101B2, “Compound and method for preventing or treating of respiratory diseases comprising the same as an active ingredient” (YONSEI UNIVERSITY, UNIVERSITY - INDUSTRY FOUNDATION (UIF), priority 2019, dated 2026).

test system: HBE cells; assay: not given; details: IL-13-treated HBE cells; cited from earlier work

| Compound | ASL depth |
| --- | --- |
| Cn1nc(COc2cccc(F)c2)c2c1CCN(C(=O)Nc1ccc(Cl)cc1)C2 [PDSinh-A01] | significantly increased |

target: T1, human wild-type (WT)-pendrin (Homo sapiens, UniProt O43511); assay: Pendrin-mediated Cl^−/I^− exchange activity, YFP fluorescence in CHO-K1 cells; format: cell-based; details: 30 μM
T1 construct: expressed in transfected cells
T1 sequence (O43511 1-780): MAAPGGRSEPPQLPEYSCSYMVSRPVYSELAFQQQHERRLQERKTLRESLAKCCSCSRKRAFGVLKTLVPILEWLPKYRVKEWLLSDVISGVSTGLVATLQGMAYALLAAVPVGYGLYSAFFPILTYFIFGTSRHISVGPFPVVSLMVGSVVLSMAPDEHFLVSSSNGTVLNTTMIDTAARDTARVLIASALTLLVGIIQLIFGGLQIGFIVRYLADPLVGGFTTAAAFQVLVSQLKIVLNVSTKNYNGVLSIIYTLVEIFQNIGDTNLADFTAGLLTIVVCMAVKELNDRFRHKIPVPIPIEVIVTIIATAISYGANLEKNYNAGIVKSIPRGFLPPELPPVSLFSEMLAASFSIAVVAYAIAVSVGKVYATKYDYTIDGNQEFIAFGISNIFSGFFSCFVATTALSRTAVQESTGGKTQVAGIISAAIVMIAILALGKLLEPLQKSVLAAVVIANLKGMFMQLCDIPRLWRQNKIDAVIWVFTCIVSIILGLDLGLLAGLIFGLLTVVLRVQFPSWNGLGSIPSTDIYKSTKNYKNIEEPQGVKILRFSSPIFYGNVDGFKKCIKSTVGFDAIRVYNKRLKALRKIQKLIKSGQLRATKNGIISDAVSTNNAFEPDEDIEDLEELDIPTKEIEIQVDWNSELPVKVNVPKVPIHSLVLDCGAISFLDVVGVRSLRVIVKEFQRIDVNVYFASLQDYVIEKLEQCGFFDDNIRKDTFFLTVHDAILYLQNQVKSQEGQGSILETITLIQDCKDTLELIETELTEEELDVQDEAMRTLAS

| Pendrin inhibitory activity at 30 μM (%) | Compound |
| --- | --- |
| 2.7% | COC(=O)C(=Cc1ccc[nH]1)NC(=O)c1ccc(C(C)(C)C)cc1 [G23, Methyl-2-(4-(tert-butyl)benzamido)-3-(1H-pyrrol-2-yl)acrylate] |

same assay, conditions: CHO-K1, 30 μM; read-out: Pendrin inhibitory activity at 30 μM (%)

| inhibition at 30 µM | Compound |
| --- | --- |
| 2.7% | O=C1OC(c2ccc(Br)cc2)=NC1=Cc1ccsc1 [F51, 2-(4-Bromophenyl)-4-(thiophen-3-ylmethylene)oxazol-5(4H)-one] |
| 6.9% | Cc1cc(C)cc(C2=NC(=Cc3cccs3)C(=O)O2)c1 [F150, 2-(3,5-Dimethylphenyl)-4-(thiophen-2-ylmethylene)oxazol-5(4H)-one] |
| 4.6% | O=C1OC(c2ccc(Br)cc2)=NC1=Cc1cccs1 [F45, 2-(4-Bromophenyl)-4-(thiophen-2-ylmethylene)oxazol-5 (4H)-one] |
| 3.3% | O=C1OC(c2ccc(N3CCCC3=O)cc2)=NC1=Cc1cccs1 [F98, 2-(4-(2-oxopyrrolidin-1-yl)phenyl)-4-(thiophen-2-ylmethylene)oxazol-5 (4H)-one] |
| 82.8% | COc1ccccc1C1=NC(=Cc2cccs2)C(=O)O1 [F34, 2-(2-Methoxyphenyl)-4-(thiophen-2-ylmethylene)oxazol-5 (4H)-one] |
| 3.6% | Cc1ncsc1C=C1N=C(c2ccc(-c3ccccc3)cc2)OC1=O [F24, 2-([1,1′-biphenyl]-4-yl)-4-((4-methylthiazol-5-yl)methylene)oxazol-5 (4H)-one] |
| 1.9% | CCCCCc1ccc(C2=NC(=Cc3ccco3)C(=O)O2)cc1 [F141, 4-(Furan-2-ylmethylene)-2-(4-pentylphenyl)oxazol-5(4H)-one] |
| 33.1% | CC(C)Cc1ccc(C2=NC(=Cc3cccs3)C(=O)O2)cc1 [F14, 2-(4-Isobutylphenyl)-4-(thiophen-2-ylmethylene)oxazol-5 (4H)-one] |
| 2.5% | CCCCCCc1ccc(C2=NC(=Cc3cccs3)C(=O)O2)cc1 [F139, 2-(4-Hexylphenyl)-4-(thiophen-2-ylmethylene)oxazol-5 (4H)-one] |

Second part, the compound before the results:

| Compound | inhibition at 30 µM |
| --- | --- |
| O=C1OC(c2ccccc2)=NC1=C1C=C(c2ccccc2)SC(c2ccccc2)=C1 [F85, 4-(2,6-Diphenyl-4H-thiopyran-4-ylidene)-2-phenyloxazol-5(4H)-one] | 2.9% |
| COC(=O)C(=Cc1ccco1)NC(=O)c1ccc(C(C)(C)C)cc1 [G4, Methyl 2-(4-(tert-butyl)beznamido)-3-(furan-2-yl)acrylate] | 4.4% |
| Cc1cc(C)cc(C2=NC(=Cc3ccc[nH]3)C(=O)O2)c1 [F149, 4-((1H-pyrrol-2-yl)methylene)-2-(3,5-dimethylphenyl)oxazol-5(4H)-one] | 4.8% |
| CC(C)(C)OC(=O)C(=Cc1ccc[nH]1)NC(=O)c1ccc(C(C)(C)C)cc1 [G6, tert-butyl 2-(4-(tert-butyl)benzamido)-3-(1H-pyrrol-2-yl)acrylate] | 4.7% |
| CC(C)(C)c1ccc(C2=NC(=Cc3cnn(-c4ccccc4)c3)C(=O)O2)cc1 [F124, 2-(4-(tert-butyl)phenyl)-4-((1-phenyl-1H-pyrazol-4-yl)methylene)oxazol-5 (4H)-one] | 2% |
| CC(C)(C)OC(=O)n1cc(C=C2N=C(c3ccc(C(C)(C)C)cc3)OC2=O)c2ccccc21 [F4, tert-butyl 3-((2-(4-(tert-butyl)phenyl)-5-oxooxazol-4(5H)-ylidene)methyl)-1H-indol-1-carboxylate] | 2.6% |
| C=CCOc1cc(N(CC)CC)ccc1C=C1N=C(c2ccc(NC(=O)c3cncc(Br)c3)cc2)OC1=O [F66, N-(4-(4-(2-(Allyloxy)-4-(diethylamino)benzylidene)-5-oxo-4,5-dihydrooxazol-2-yl)phenyl)-5-bromonicotinamide] | 2.3% |
| O=C1OC(c2ccccc2)=NC1=Cc1cccn1Cc1ccccc1Cl [F65, 4-((1-(2-Chlorobenzyl)-1H-pyrrol-2-yl)methylene)-2-phenyloxazol-5(4H)-one] | 1.7% |

same assay, conditions: compounds showing pendrin inhibitory activity of 50% or more at 30 μM; read-out: IC50

| IC50 | Compound |
| --- | --- |
| 8.6 ± 0.84 µM | COc1ccccc1C1=NC(=Cc2cccs2)C(=O)O1 [F34, 2-(2-Methoxyphenyl)-4-(thiophen-2-ylmethylene)oxazol-5 (4H)-one] |
